Test results reported in patent US8759332B2, “Hepatitis C virus inhibitors” (Enanta Pharmaceuticals, Inc., priority 2009, dated 2014).

System: HCV 1b genotype replicon
Assay: HCV replicon assay (qRT-PCR or luciferase), genotype 1b
Format: cell-based
Details: Hepatitis C virus, read-out: Genotype-1b replicon EC50 Range
Description: HCV replicon cell lines (kindly provided by R. Bartenschlager) isolated from colonies as described by Lohman et. al. (Lohman et al. (1999) Science 285: 110-113, expressly incorporated by reference in its entirety) and used for all experiments. The HCV replicon has the nucleic acid sequence set forth in EMBL Accession No.: AJ242651, the coding sequence of which is from nucleotides 1801 to 8406.
The coding sequence of the published HCV replicon was synthesized and subsequently assembled in a modified plasmid pBR322 (Promega, Madison, Wis.) using standard molecular biology techniques. One replicon cell line (“SGR 11-7”) stably expresses HCV replicon RNA which consists of (i) the HCV 5′UTR fused to the first 12 amino acids of the capsid protein, (ii) the neomycin phosphotransferase gene (neo), (iii) the IRES from encephalomyocarditis virus (EMCV), and (iv) HCV NS2 to NS5B genes and the HCV 3′UTR. Another replicon cell line (“Huh-luc/neo-ET”) described by Vrolijk et. al. (Vrolijk et. al. (2003) Journal of Virological Methods 110:201-209, expressly incorporated by reference in its entirety) stably expresses HCV replicon RNA which consists of (i) the HCV 5′UTR fused to the first 12 amino acids of the capsid protein, (ii) the firefly luciferase reporter gene, (iii) the ubiquitin gene, (iv) the neomycin phosphotransferase gene (neo), (v) the IRES from encephalomyocarditis virus (EMCV), and (vi) HCV NS3 to NS5B genes that harbor cell culture adaptive mutations (E1202G, T12801, K1846T) and the HCV 3′UTR.
These cell lines were maintained at 37° C., 5% CO2, 100% relative humidity in DMEM (Cat#11965-084, Invitrogen), with 10% fetal calf serum (“FCS”, Invitrogen), 1% non-essential amino acids (Invitrogen), 1% of Glutamax (Invitrogen), 1% of 100× penicillin/streptomycin (Cat#15140-122, Invitrogen) and Geneticin (Cat#10131-027, Invitrogen) at 0.75 mg/ml or 0.5 mg/ml for 11-7 and Huh-luc/neo-ET cells, respectively.
EC50 values of single agent compounds and combinations were determined by HCV RNA detection using quantitative RT-PCR, according to the manufacturer's instructions, with a TAQMAN® One-Step RT-PCR Master Mix Reagents Kit (Cat# AB 4309169, Applied Biosystems) on an ABI Model 7500 thermocycler. The TaqMan primers used for detecting and quantifying HCV RNA were obtained from Integrated DNA Technologies. HCV RNA was normalized to GAPDH RNA levels in drug-treated cells, which was detected and quantified using the Human GAPDH Endogenous Control Mix (Applied Biosystems, AB 4310884E). Total cellular RNA was purified from 96-well plates using the RNAqueous 96 kit (Ambion, Cat#AM1812). Chemical agent cytotoxicity was evaluated using an MTS assay according to the manufacturer's directions (Promega).
Since clinical drug resistance often develops in viral infections following single agent therapies, there is a need to assess the additive, antagonistic, or synergistic properties of combination therapies. We use the HCV replicon system to assess the potential use of the compound of the present invention or in combination therapies with Interferon alpha, cyclosporine analogs and inhibitors targeting other HCV proteins. The acute effects of a single or combinations of drugs are studied in the “Huh-luc/neo-ET” replicon with each chemical agent titrated in an X or Y direction in a 6 point two-fold dilution curve centered around the EC50 of each drug. Briefly, replicon cells are seeded at 7,000 cells per well in 90 ul DMEM (without phenol red, Invitrogen Cat.#31053-036) per well with 10% FCS, 1% non-essential amino acids, 1% of Glutamax and 1% of 100× penicillin/streptomycin and incubated overnight at 37° C., 5% CO2, 100% relative humidity. […]

SMILES	EC50 [nM]
COC(=O)N[C@H](C(=O)N[C@H]1CCC[C@@H]1Nc1ncc(-c2ccc3cc(-c4c[nH]c([C@@H]5CCCN5C(=O)[C@@H](NC(=O)OC)C(C)C)n4)ccc3c2)cn1)C(C)C (racemic) [373a and 373b]	< 1
COC(=O)N[C@H](C(=O)N1CCC[C@H]1CNc1ncc(-c2ccc3cc(-c4c[nH]c([C@@H]5CCCN5C(=O)[C@@H](NC(=O)OC)C(C)C)n4)ccc3c2)cn1)C(C)C [Example 83]	> 10
COC(=O)N[C@H](C(=O)N1CCC[C@H]1CNc1ncc2cc(-c3ccc(-c4c[nH]c([C@@H]5CCCN5C(=O)[C@@H](NC(=O)OC)C(C)C)n4)cc3)ccc2n1)C(C)C [Example 294]	< 1
COC(=O)N[C@H](C(=O)N1CCC[C@H]1CNc1ccc(-c2ccc3cc(-c4c[nH]c([C@@H]5CCCN5C(=O)[C@@H](NC(=O)OC)C(C)C)n4)ccc3c2)cn1)C(C)C [Example 296]	< 1
COC(=O)N[C@H](C(=O)N1CCC[C@H]1CNc1nc2ccc(-c3ccc(-c4c[nH]c([C@@H]5CCCN5C(=O)[C@@H](NC(=O)OC)C(C)C)n4)cc3)cc2s1)C(C)C [Example 305]	< 1
COC(=O)N[C@H](C(=O)N1CCC[C@H]1CNc1ncc(C#Cc2ccc3nc([C@@H]4CCCN4C(=O)[C@@H](NC(=O)OC)C(C)C)[nH]c3c2)cn1)C(C)C [Example 313]	> 10
COC(=O)N[C@H](C(=O)N1CCC[C@H]1CNc1ncc2cc(C#Cc3ccc4[nH]c([C@@H]5CCCN5C(=O)[C@@H](NC(=O)OC)C(C)C)nc4c3)ccc2n1)C(C)C [Example 322]	1 to 10
COC(=O)N[C@H](C(=O)N1CCC[C@H]1CNc1ncc(-c2ccc(-c3cnc(NC[C@@H]4CCCN4C(=O)[C@@H](NC(=O)OC)C(C)C)nc3)cc2)cn1)C(C)C [Example 370]	> 10
COC(=O)N[C@H](C(=O)N1CCC[C@H]1CNc1nc2ccc(-c3ccc4nc(NC[C@@H]5CCCN5C(=O)[C@@H](NC(=O)OC)C(C)C)sc4c3)cc2s1)C(C)C [Example 377]	> 10
COC(=O)N[C@H](C(=O)N1CCC(Nc2ncc(-c3ccc4cc(-c5c[nH]c([C@@H]6CCCN6C(=O)[C@@H](NC(=O)OC)C(C)C)n5)ccc4c3)cn2)C1)C(C)C (stereo partly shown) [Example 382]	1 to 10
COC(=O)N[C@H](C(=O)N1CCC(Nc2ncc(-c3ccc(-c4c[nH]c([C@@H]5CCCN5C(=O)[C@@H](NC(=O)OC)C(C)C)n4)cc3)cn2)C1)C(C)C (stereo partly shown) [Example 384]	1 to 10
COC(=O)N[C@H](C(=O)N1CCC[C@H]1CNc1nc2ccc(-c3ccc4cc(-c5c[nH]c([C@@H]6CCCN6C(=O)[C@@H](NC(=O)OC)C(C)C)n5)ccc4c3)cc2s1)C(C)C [Example 386]	< 1
CCC(CNc1ncc(-c2ccc3cc(-c4c[nH]c([C@@H]5CCCN5C(=O)[C@@H](NC(=O)OC)C(C)C)n4)ccc3c2)cn1)NC(=O)[C@@H](NC(=O)OC)C(C)C (stereo partly shown) [Example 388]	> 10
CCC(CNc1ncc(-c2ccc3cc(-c4c[nH]c([C@@H]5CCCN5C(=O)[C@@H](NC(=O)OC)C(C)C)n4)ccc3c2)cn1)N(C)C(=O)[C@@H](NC(=O)OC)C(C)C (stereo partly shown) [Example 390]	1 to 10
COC(=O)N[C@H](C(=O)N1CCC[C@@H]1CNc1ncc(-c2ccc3cc(-c4cnc([C@@H]5CCCN5C(=O)[C@@H](NC(=O)OC)C(C)C)[nH]4)ccc3c2)cn1)C(C)C [Example 393]	1 to 10
COC(=O)N[C@H](C(=O)N1CCC[C@H]1CNc1ncc(C#Cc2ccc(-c3cnc([C@@H]4CCCN4C(=O)[C@@H](NC(=O)OC)C(C)C)[nH]3)cc2)cn1)C(C)C [Example 394]	> 10
